The source of these data is patent US6710048B2, “Pyrazine derivatives as modulators of tyrosine kinases” (Ortho-McNeil Pharmaceutical, Inc., priority 2000, dated 2004).

The target in one assay is T1, PKC-γ (Homo sapiens, UniProt P05129).
T1 construct: purchased BIOMOL SE-143; host or cells: insect cells
Kind of assay: PKC-γ kinase selectivity assay. In kind it is biochemical. The conditions noted are these: Table 4 kinase selectivity; read-out: IC50, Assay 6 PKC-γ. The method, then:
(§1) Assays to test compound inhibition of other kinases were preformed using methods that measure the amount of phosphorylation of a biotinylated peptide substrate. Biotinylated peptide substrates were selected from the literature as appropriate for the enzyme being evaluated. […] Assay conditions vary slightly for each protein kinase, for example, insulin receptor kinase requires 10 mM MnCl2 for activity and Calmodulin-dependent protein kinase requires calmodulin and 2 mM CaCl2. The reaction mixture was dispensed into the wells of a streptavidin coated Flashplate and 1 μl drug stock in 100% DMSO was added to a 100 μl reaction volume resulting in a final concentration of 1% DMSO in the reaction. Enzyme was diluted in 50 mM Tris-HCl pH=8.0, 0.1% BSA and added to each well. The reaction was incubated for one hour at 30° C. in the presence of compound. After one hour the reaction mix was aspirated from the plate and the plate was washed with PBS containing 100 mM EDTA. The plate was read on a scintillation counter to determine ^33P-γ-ATP incorporated into the immobilized peptide. Test compounds were assayed in duplicate at 8 concentrations [100 tM, 10 μM, 1 μM, 100 nM, 10 nM, 1 nM, 100 μM, 10 μM]. A maximum and minimum signal for the assay was determined on each plate. The IC50 was calculated from the dose response curve of the percent inhibition of the maximum signal in the assay according to the formula [max signal−background/test compound signal−background (100)=% inhibition] by graphing the percent inhibition against the log concentration of test compound. Known inhibitor compounds appropriate for the kinase being assayed were also included on each plate.
(§2) VEGF-R (vascular endothelial growth factor receptor-2) is a fusion protein containing a polyhistidine tag at the N-terminus followed by amino acids 786-1343 of the rat VEGF-R2 kinase domain (GenBank Accession #U93306). CDK1 (cyclin dependent kinase 1) is isolated from insect cells expressing both the human CDK1 catalytic subunit and its positive regulatory subunit cyclin B (New England Biolabs, Beverly, Mass., Cat. #6020). CDK4 (cyclin dependent kinase 4) contains amino acids 769 to 921 of the mouse […] protein found in the GST-retinoblastoma protein construct (Santa Cruz Biotechnology, Santa Cruz, Calif.; Cat. #SC-4112). Insulin Receptor Kinase consists of residues 941-1313 of the cytoplasmic domain of the beta-subunit of the human insulin receptor (BIOMOL, Plymouth Meeting, Pa., Cat. #SE-195). Protein Kinase A is the catalytic subunit of cAMP dependent protein kinase-A purified from bovine heart (Upstate Biotech, Lake Placid, N.Y., Cat#14-114). PKC (protein kinase-C) is the gamma or beta isoform of the human protein produced in insect cells (BIOMOL, Plymouth Meeting, Pa., Cat. #SE-143). Casein Kinase 1 is a truncation at amino acid 318 of the C-terminal portion of the rat CK1 delta isoform produced in E.coli (New England Biolabs, Beverly, Mass., Cat. #6030). Casein Kinase 2 includes the alpha and beta subunits of the human CK2 protein produced in E.coli (New England Biolabs, Beverly, Mass., Cat. #6010). Calmodulin Kinase (calmodulin-dependent protein kinase 2) is a truncated version of the alpha subunit of the rat protein produced in insect cells (New England Biolabs, Beverly, Mass., Cat. #6060). Glycogen Synthase Kinase-3 is the beta isoform of the rabbit enzyme produced in E. coli (New England Biolabs, Beverly, Mass., Cat. #6040). MAP Kinase is the rat ERK-2 isoform containing a polyhistidine tag at the N-terminus produced in E. coli. and activated by phosphorylation with MEK1 prior to purification (BIOMOL, Plymouth Meeting, Pa., Cat. #SE-137). EGFR (epidermal growth factor receptor) is purified from human A431 cell membranes (Sigma, St. Louis, Mo., Cat.# E3641). PDGF-R (platelet derived growth factor receptor) is a fusion protein containing a polyhistidine tag at the N-terminus followed by nucleotides 1874-3507 of the human PDGF-R beta subunit kinase domain (Accession #M21616). […]

The target in assay [1] is T2, Glycogen Synthase Kinase-3 (beta isoform) (Oryctolagus cuniculus, UniProt G1T8E2).
T2 construct: purchased New England Biolabs 6040; host or cells: E. coli
Description: GSK-3 kinase selectivity assay. The assay is classed as biochemical, rabbit. The note with it: Table 4 kinase selectivity; read-out: IC50, Assay 11 GSK-3. The protocol:
as §1, §2

The target in a further assay is T3, Insulin Receptor Kinase (Homo sapiens, UniProt P06213).
T3 construct: consists of residues 941-1313 of the cytoplasmic domain of the beta-subunit of the human insulin receptor; purchased BIOMOL SE-195
Description: Insulin Kinase selectivity assay. In kind it is biochemical. The conditions noted are these: Table 4 kinase selectivity; read-out: IC50, Assay 13 Insulin Kinase. The protocol: as §1, §2

Assay [2] addresses T4, PDGF-R (platelet derived growth factor receptor) (Homo sapiens, UniProt P09619).
T4 construct: polyhistidine (N)
Kind of assay: PDGF-R kinase selectivity assay. The assay is classed as biochemical. The conditions noted are these: Table 4 kinase selectivity; read-out: IC50, Assay 14 PDGF-R. The protocol:
as §1, §2

pIC50: −log10 of the molar value.

T3 sequence (P06213 980-1352): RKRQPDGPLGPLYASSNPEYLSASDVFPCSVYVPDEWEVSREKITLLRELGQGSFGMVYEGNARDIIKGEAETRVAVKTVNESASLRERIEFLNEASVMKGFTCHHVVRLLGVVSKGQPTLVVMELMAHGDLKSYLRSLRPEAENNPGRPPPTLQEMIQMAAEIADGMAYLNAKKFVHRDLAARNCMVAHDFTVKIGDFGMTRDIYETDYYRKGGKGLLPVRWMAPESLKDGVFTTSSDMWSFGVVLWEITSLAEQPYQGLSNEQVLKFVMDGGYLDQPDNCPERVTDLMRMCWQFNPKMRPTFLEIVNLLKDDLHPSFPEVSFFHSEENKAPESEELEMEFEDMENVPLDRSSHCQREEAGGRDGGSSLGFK
T4 sequence (P09619 554-1106 limits assumed): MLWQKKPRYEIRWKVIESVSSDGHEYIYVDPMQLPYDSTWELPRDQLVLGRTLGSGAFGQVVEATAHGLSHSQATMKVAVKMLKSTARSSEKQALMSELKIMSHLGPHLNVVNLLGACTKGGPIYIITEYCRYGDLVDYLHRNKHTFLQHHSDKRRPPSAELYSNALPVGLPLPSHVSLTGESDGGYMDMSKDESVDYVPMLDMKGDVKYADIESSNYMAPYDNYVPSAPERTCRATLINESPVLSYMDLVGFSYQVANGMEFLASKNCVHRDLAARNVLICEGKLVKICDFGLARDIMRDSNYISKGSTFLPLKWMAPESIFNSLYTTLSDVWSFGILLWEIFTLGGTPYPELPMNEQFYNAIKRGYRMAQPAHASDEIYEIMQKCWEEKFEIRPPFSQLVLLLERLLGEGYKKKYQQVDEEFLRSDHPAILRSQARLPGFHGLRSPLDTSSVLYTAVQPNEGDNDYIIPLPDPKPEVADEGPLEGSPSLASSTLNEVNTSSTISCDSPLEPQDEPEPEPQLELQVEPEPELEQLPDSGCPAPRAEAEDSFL
T2 sequence (G1T8E2 1-432): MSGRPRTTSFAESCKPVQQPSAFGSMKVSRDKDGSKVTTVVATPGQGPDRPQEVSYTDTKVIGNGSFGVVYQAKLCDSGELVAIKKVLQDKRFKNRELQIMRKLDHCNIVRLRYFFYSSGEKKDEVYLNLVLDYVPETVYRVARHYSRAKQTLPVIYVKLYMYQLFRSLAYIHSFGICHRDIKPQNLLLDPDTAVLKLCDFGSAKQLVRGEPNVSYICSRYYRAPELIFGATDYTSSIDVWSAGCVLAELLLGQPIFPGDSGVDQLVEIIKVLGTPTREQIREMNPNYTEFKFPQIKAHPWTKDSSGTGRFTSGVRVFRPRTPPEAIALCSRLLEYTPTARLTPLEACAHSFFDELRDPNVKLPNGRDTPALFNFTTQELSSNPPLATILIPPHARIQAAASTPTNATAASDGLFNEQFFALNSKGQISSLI

On to `OCCCNc1cncc(-c2cncc(Nc3cccc(Cl)c3)n2)c1` [Cmd 4], for which the pIC50 (as a rule, −log10 of the IC50, conventionally taken in molar units) at PKC-γ is < 4.00; in assay [1] it was 6.32; at Insulin Receptor Kinase it was 5.77.

Turning to `OCCCCNc1cncc(-c2cncc(Nc3cccc(Cl)c3)n2)c1` [Cmd 32], the pIC50 is < 4.00 at PKC-γ, 5.40 in assay [1], < 4.00 at Insulin Receptor Kinase and 5.55 in assay [2].

As to `CN(C)CCNc1cncc(-c2cncc(Nc3cccc(Cl)c3)n2)c1` [Cmd 33, N′-[5-[6-[(3-chlorophenyl)amino]pyrazinyl]-3-pyridinyl]-N^2,N^2-dimethyl-1,2-ethanediamine], the pIC50 at PKC-γ was 5.40; in assay [1], 4.94; at Insulin Receptor Kinase it was < 4.00; in assay [2], 4.53.

Take `CN(C)CCCNc1cncc(-c2cncc(Nc3cccc(Cl)c3)n2)c1` [Cmd 35]: the pIC50 is 4.84 at PKC-γ, 5.09 in assay [1], < 4.00 on Insulin Receptor Kinase and 5.60 in assay [2].

For `O=C(NCCCO)c1cncc(-c2cncc(Nc3cccc(Cl)c3)n2)c1` [Cmd 39], the pIC50 is < 4.00 at PKC-γ, 6.06 in assay [1], 5.74 at Insulin Receptor Kinase and 5.55 in assay [2].

`Clc1cccc(Nc2cncc(-c3cncc(NCCCc4ccncc4)c3)n2)c1` [Cmd 71]: the figures for the pIC50 (in assay [1]; at Insulin Receptor Kinase; in assay [2]) were 6.80, < 4.00 and 6.00, respectively.

`Clc1cccc(Nc2cncc(-c3cncc(NCCCc4cccnc4)c3)n2)c1` [Cmd 72]: the pIC50 in assay [1] is 6.50; at Insulin Receptor Kinase, < 4.00; in assay [2], 6.06.

On to `Clc1cccc(Nc2cncc(-c3cncc(NCCCN4CCCCC4)c3)n2)c1` [Cmd 73], for which the pIC50 at PKC-γ was 5.87; in assay [1], 6.31; on Insulin Receptor Kinase, < 4.00; in assay [2], 6.76.

In the case of `Clc1cccc(Nc2cncc(-c3cncc(NCCCn4cccn4)c3)n2)c1` [Cmd 75], the pIC50 was 6.22 in assay [1] and < 4.00 on Insulin Receptor Kinase.

As for `Clc1cccc(Nc2cncc(-c3cncc(NCCCn4cncn4)c3)n2)c1` [Cmd 76], the negative logarithm of the IC50 (pIC50) was 6.71 in assay [1], < 4.00 at Insulin Receptor Kinase and 6.14 in assay [2].
